Source: PMC11456916, “A screen for cell envelope stress uncovers an inhibitor of prolipoprotein diacylglyceryl transferase, Lgt, in Escherichiacoli” (iScience, 2024)

Legend:
[1] = system: E. coli ΔtolC-pore harboring CRISPRi plasmids targeting lgt; assay: CRISPRi lgt knockdown MIC (low-copy enhancement); format: cell-based; conditions: two gRNAs targeting lgt, 100 ng/mL aTc
From the text: We next turned to genetic approaches to confirm the mechanism of action of MAC-0452936. […] To that end, we screened the E. coli CRISPRi collection in the ΔtolC-pore genetic background with a sub-inhibitory concentration of MAC-0452936 and measured the fitness of all 356 CRISPRi mutants (Figure 4C and Data S4). […] Depletion of Lgt by CRISPRi provided supporting evidence that MAC-0452936 targeted Lgt in E. coli; however, we sought to confirm this observation using a parallel genetic approach. We hypothesized that MAC-0452936 potency would also be affected by high-copy expression of lgt. To that end, we introduced either an arabinose inducible copy of lgt supplied on the pCHAP9231 plasmid[48] or the pBAD19s plasmid as a control into E. coli ΔtolC-pore and tested the potency of MAC-0452936 (Figure 4E). Induction of lgt expression with arabinose suppressed the activity of MAC-0452936 by about 8-fold. […] To test this hypothesis, we constructed E. coli ΔlgtΔtolC-pore with pCHAP9231[48] so that lgt expression was driven solely by arabinose from the plasmid. […] To test this observation with MAC-0452936, we introduced an lpp deletion into our screening strain E. coli ΔtolC-pore and assessed the activity of our Lgt inhibitor in this mutant background. […]

[2] = system: 356 CRISPRi constructs in E. coli ΔtolC-pore; assay: CRISPRi collection fitness screen with sub-inhibitory compound; format: cell-based; conditions: for Growth, mean colony biomass (n=4): +250 ng/ml Vancomycin
From the text: To that end, we screened the E. coli CRISPRi collection in the ΔtolC-pore genetic background with a sub-inhibitory concentration of MAC-0452936 and measured the fitness of all 356 CRISPRi mutants (Figure 4C and Data S4). […] To that end, we introduced either an arabinose inducible copy of lgt supplied on the pCHAP9231 plasmid[48] or the pBAD19s plasmid as a control into E. coli ΔtolC-pore and tested the potency of MAC-0452936 (Figure 4E). […] To test this hypothesis, we constructed E. coli ΔlgtΔtolC-pore with pCHAP9231[48] so that lgt expression was driven solely by arabinose from the plasmid.
For screens of the CRISPRi collection with MAC-0452936, the mobile CRISPRi collection was first conjugated into E. coli ΔtolC-pore as previously described.[30] The CRISPRi collection was then arrayed on solid agar at 1536 density using the Singer-ROTOR, such that each CRISPRi strain is arrayed in technical quadruplicate. […] The screens were conducted without CRISPRi induction, using just the 5–10% basal knockdown from the pFD152 CRISPRi plasmid. Following overnight growth, plates were imaged using high-resolution scanners (Epson Perfection v750), and colony biomass for each mutant was determined.

## CO[C@H]1/C=C/O[C@@]2(C)Oc3c(C)c(O)c4c(O)c(c(/C=N/N5CCN(C)CC5)c(O)c4c3C2=O)NC(=O)/C(C)=C\C=C\[C@H](C)[C@H](O)[C@@H](C)[C@@H](O)[C@@H](C)[C@H](OC(C)=O)[C@@H]1C [Rifampicin]
[1]
  sensitization upon depletion of Lgt with CRISPRi constructs: not to either of the negative control antibiotics

## CN[C@H](CC(C)C)C(=O)N[C@H]1C(=O)N[C@@H](CC(N)=O)C(=O)N[C@H]2C(=O)N[C@H]3C(=O)N[C@H](C(=O)N[C@H](C(=O)O)c4cc(O)cc(O)c4-c4cc3ccc4O)[C@H](O)c3ccc(c(Cl)c3)Oc3cc2cc(c3O[C@@H]2O[C@H](CO)[C@@H](O)[C@H](O)[C@H]2O[C@H]2C[C@](C)(N)[C@H](O)[C@H](C)O2)Oc2ccc(cc2Cl)[C@H]1O [Vancomycin]
[2]; gRNA asnS
  Growth, mean colony biomass (n=4): 0.957
[2]; gRNA cdsA, 1μg/ml MAC0452936, 6ng/ml LolCDE-in-1, 250 ng/ml Vancomycin, 7 ng/ml CHIR090, n=4
  Growth represented as mean colony biomass: 1.2659
[2]; gRNA csrA
  Growth, mean colony biomass (n=4): 0.9477
[2]; gRNA dnaC
  Growth, mean colony biomass (n=4): 1.003
[2]; gRNA dut
  Growth, mean colony biomass (n=4): 1.0326
[2]; gRNA folA
  Growth, mean colony biomass (n=4): 1.027
[2]; gRNA folC
  Growth, mean colony biomass (n=4): 1.033
[2]; gRNA ftsA
  Growth, mean colony biomass (n=4): 0.9398
[2]; gRNA glmS
  Growth, mean colony biomass (n=4): 1.002
[2]; gRNA hemD
  Growth, mean colony biomass (n=4): 1.042
[2]; gRNA lexA
  Growth, mean colony biomass (n=4): 1.232
[2]; gRNA mnmA
  Growth, mean colony biomass (n=4): 1.044
[2]; gRNA msbA
  Growth, mean colony biomass (n=4): 1.015
[2]; gRNA mukF
  Growth, mean colony biomass (n=4): 1.002
[2]; gRNA nadK
  Growth, mean colony biomass (n=4): 0.9893
[2]; gRNA prmC
  Growth, mean colony biomass (n=4): 1.009
[2]; gRNA pssA
  Growth, mean colony biomass (n=4): 0.9581
[2]; gRNA ptsI
  Growth, mean colony biomass (n=4): 1.038
[2]; gRNA ribD
  Growth, mean colony biomass (n=4): 1.045
[2]; gRNA rne
  Growth, mean colony biomass (n=4): 1.0315
[2]; gRNA rplA
  Growth, mean colony biomass (n=4): 0.9936
[2]; gRNA rplX
  Growth, mean colony biomass (n=4): 1.03
[2]; gRNA rpmC
  Growth, mean colony biomass (n=4): 1.003
[2]; gRNA rpoE
  Growth, mean colony biomass (n=4): 1.036
[2]; gRNA rpsG
  Growth, mean colony biomass (n=4): 1.014
[2]; gRNA rpsK
  Growth, mean colony biomass (n=4): 0.9986
[2]; gRNA rpsR
  Growth, mean colony biomass (n=4): 0.9771
[2]; gRNA rpsT
  Growth, mean colony biomass (n=4): 1.039
[2]; gRNA suhB
  Growth, mean colony biomass (n=4): 0.9724
[2]; gRNA tsaE
  Growth, mean colony biomass (n=4): 0.9903
[2]; gRNA ygeN
  Growth, mean colony biomass (n=4): 0.9481
[2]; gRNA yqeL
  Growth, mean colony biomass (n=4): 1.455
[2]; gRNA zipA
  Growth, mean colony biomass (n=4): 1.731
[2]; sub-inhibitory (¼ MIC) concentration, LB agar, basal knockdown
  growth defect of the lgt CRISPRi mutant in the presence of compound: did not demonstrate a growth defect
[1]
  sensitization upon depletion of Lgt with CRISPRi constructs: not to either of the negative control antibiotics
